Data on 6 compounds can be found in publication PMC2859832 (Journal of medicinal chemistry, 2009).

Where two headings read alike, the source gives them in different places. Starred links: 1 amine or outer side, 2 acyl side, 3 side chain; linkers in the order of their positions; H or OH if unused. Non-standard residues stand in square brackets, D forms with d. *: point of attachment. mPro = cis-3,4-methanoproline, O=C([C@@H]1[C@@H]2C[C@@H]2CN1[*:1])[*:2]; pY = N[C@@H](Cc1ccc(OP(=O)(O)O)cc1)C(=O)O; Hydrocinnamoyl = O=C(CCc1ccccc1)*; NHBn = c1ccc(CN*)cc1

The target in experiment [1] is T1, SH2 domain of Stat3 (Homo sapiens, UniProt P40763). In words: fluorescence polarization. As to conditions: for fold lower affinity than the unsubstituted methyl group: relative to 4-methyl Aba peptide (17). Format: binding.
The target in experiment [2] is T1, SH2 domain of Stat3. As to conditions: FP assay; ref [8]; cited from earlier work.

T1 sequence (P40763 whole entry, the tested form may be a part): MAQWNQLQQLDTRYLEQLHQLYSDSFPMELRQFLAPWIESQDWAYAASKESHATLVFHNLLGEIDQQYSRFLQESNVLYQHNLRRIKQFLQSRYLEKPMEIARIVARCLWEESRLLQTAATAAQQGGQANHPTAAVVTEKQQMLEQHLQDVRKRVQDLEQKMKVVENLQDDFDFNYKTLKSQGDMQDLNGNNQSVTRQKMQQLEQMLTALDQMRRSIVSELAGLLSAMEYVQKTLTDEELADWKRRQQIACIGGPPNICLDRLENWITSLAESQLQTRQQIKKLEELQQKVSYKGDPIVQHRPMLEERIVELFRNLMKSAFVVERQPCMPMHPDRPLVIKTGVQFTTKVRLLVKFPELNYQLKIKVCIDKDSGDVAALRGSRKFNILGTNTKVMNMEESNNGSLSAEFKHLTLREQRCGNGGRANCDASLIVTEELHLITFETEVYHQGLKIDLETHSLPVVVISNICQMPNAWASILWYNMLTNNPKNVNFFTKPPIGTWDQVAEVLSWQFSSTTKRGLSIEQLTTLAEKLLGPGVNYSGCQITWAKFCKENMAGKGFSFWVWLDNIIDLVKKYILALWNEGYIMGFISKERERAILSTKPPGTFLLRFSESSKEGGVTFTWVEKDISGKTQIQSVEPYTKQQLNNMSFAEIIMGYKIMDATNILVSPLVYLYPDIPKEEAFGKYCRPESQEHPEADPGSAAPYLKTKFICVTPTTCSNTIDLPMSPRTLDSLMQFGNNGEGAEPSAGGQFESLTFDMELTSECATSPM

For `CC(C)C[C@H](NC(=O)/C=C/c1ccc(OP(=O)(O)O)cc1)C(=O)N1CCC[C@H]1C(=O)N[C@@H](COC(N)=O)[C@H](C)OCc1ccccc1` [Peptide 37], the IC50 on SH2 domain of Stat3 [1] was found to be 6.9 µM.

Consider `CC(C)C[C@H](NC(=O)/C=C/c1ccc(OP(=O)(O)O)cc1)C(=O)N1CCC[C@H]1C(=O)N[C@H](C)CNC(N)=O` [Peptide 39], for which the “fold loss in activity on addition of a methyl group” value at SH2 domain of Stat3 [1] (relative to 2-aminoethylurea peptide 38) came to 10 fold.

With `CC(C)C[C@H](NC(=O)/C=C/c1ccc(OP(=O)(O)O)cc1)C(=O)N1CCC[C@H]1C(=O)N[C@H](CN)CCC(N)=O` [Peptide 30], the “fold lower affinity than the unsubstituted methyl group” value on SH2 domain of Stat3 [1] is 10 fold.

Consider `CC(C)C[C@H](NC(=O)/C=C/c1ccc(OP(=O)(O)O)cc1)C(=O)N1CCC[C@H]1C(=O)N[C@@H](CCC(N)=O)CN(Cc1ccccc1)Cc1ccccc1` [Peptide 29], for which the “fold lower affinity than the unsubstituted methyl group” value on SH2 domain of Stat3 [1] was 7 fold.

For `CC(C)C[C@H](NC(=O)/C=C/c1ccc(OP(=O)(O)O)cc1)C(=O)N1C[C@H]2C[C@H]2[C@H]1C(=O)N[C@@H](CCC(N)=O)C(=O)NCc1ccccc1` [Peptide 40, pCinn-Leu-cis-3,4-methanoPro-Gln-NHBn], the “fold increase in affinity on incorporation of cis-3,4-methanoPro” value on SH2 domain of Stat3 [1] (relative to peptide 2) was 2 fold.

As to “hydrocinnamoyl-pTyr-Leu-mPro-Gln-NHBn (Hydrocinnamoyl-[pY]L[mPro]Q-NHBn; SMILES CC(C)C[C@H](NC(=O)[C@H](Cc1ccc(OP(=O)(O)O)cc1)NC(=O)CCc1ccccc1)C(=O)N1C[C@H]2C[C@H]2[C@H]1C(=O)N[C@@H](CCC(N)=O)C(=O)NCc1ccccc1)”, the IC50 with SH2 domain of Stat3 [2] was 0.125 µM.
